{"source": "patent US20240208961A1", "about": "“EIF4E INHIBITORS AND USES THEREOF” (PIC Therapeutics, Inc., priority 2022, published 2024)", "test": "Pharmacokinetic studies of certain compounds in female Balb/c mice (Example 5)", "format": "in vivo", "conditions": "I-1 PO 30 mg/kg", "protocol": "Pharmacokinetic studies were performed using Balb/c mice, 15-20 g, 6-9 weeks, female, N=9, purchased from Jihui Laboratory Animal Co. LTD. For compound I-29, Balb/c mice, 19-21 g, 9-11 weeks, female, N=9, were used. The mice were fasted overnight and fed at 4 h post dosing.\nAnimals were dosed via oral gavage (PO) or tail vein injection (IV) with compound. Sampling occurred at 0.083, 0.25, 0.5, 1, 2, 4, 8, and 24 h post dose (8 time points). The animals were restrained manually at the designated time points. Approx. […] of blood was taken from the animals via facial vein for semi-serial bleeding into tubes with K2EDTA. Blood samples were put on ice and centrifuged at 4° C. (2000 g, 5 min) to obtain plasma within 15 min after sample collection. Plasma samples were stored in dry ice temporarily and at approximately −70° C. until analysis.\nFor oral gavage, the compound was dosed as a suspension in 1% sodium carboxymethyl cellulose (CMC) and 0.2% Tween 80 in water. For 23.8 mg/kg and 30 mg/kg doses, 3 mg/mL was used; for 50 mg/kg doses, 5 mg/mL was used; and for 100 mg/kg doses, 10 mg/mL was used.\nFor IV administration, the compound was dosed as a solution in 5% DMSO, 5% Solutol HS15 and 90% saline. For 1 mg/kg and 1.48 mg/kg doses, 0.2 mg/mL was used.\nPlasma samples were analyzed using LC-MS using a calibration curve of known concentrations.\nThe results of these studies are summarized in Tables 11-21 below and in FIGS. 2-8. […] BQL=below quantifiable limit for compound in female Balb/c mouse plasma samples. NA=not available. PK parameters were estimated by non-compartmental model using WinNonlin 8.2. If the adjusted rsq (linear regression coefficient of the concentration value on the terminal phase) was less than 0.9, T1/2 might not have been accurately estimated. F value was determined by the following equation: • If AUClast/AUCINF>80%:\nF=(AUCINF-EX×DOSEIV)/(AUCINF-IV×DOSEEX)[…] • If AUClast/AUCINF<80% or AUCINF not available:\nF=(AUClast-EX×DOSEIV)/(AUClast-IV×DOSEEX)*1000", "key": {"[1]": {"conditions": "24 hr, BQL = below quantifiable limit of 1 ng/mL"}}, "note": "Where “and” joins values, the source holds several entries; their conditions need not be identical. Equal values may be shown once. Read-outs that look alike come from different tables or passages of the source."}
{"smiles": "CC(C)Cc1sc(Nc2ncc(-c3cccs3)cc2C(=O)O)nc1C1=CCOCC1", "note": "[Compound I-1]", "values": [{"measurement": "Plasma concentration Individual", "setting": "0.083 hr, 30 mg/kg", "value": "96.9 ng/mL and 51.8 ng/mL and 106 ng/mL"}, {"measurement": "Plasma concentration Individual", "setting": "0.25 hr, 30 mg/kg", "value": "467 ng/mL and 432 ng/mL"}, {"measurement": "Plasma concentration Individual", "setting": "0.5 hr, 30 mg/kg", "value": "464 ng/mL and 421 ng/mL"}, {"measurement": "Plasma concentration Individual", "setting": "1 hr, 30 mg/kg", "value": "592 ng/mL and 498 ng/mL"}, {"measurement": "Plasma concentration Individual", "setting": "2 hr, 30 mg/kg", "value": "367 ng/mL and 222 ng/mL"}, {"measurement": "Plasma concentration Individual", "setting": "4 hr, 30 mg/kg", "value": "130 ng/mL and 153 ng/mL"}, {"measurement": "Plasma concentration Individual", "setting": "8 hr, 30 mg/kg", "value": "78.9 ng/mL and 6.72 ng/mL and 12.2 ng/mL"}, {"measurement": "Plasma concentration Individual", "setting": "[1]", "value": "BQL"}, {"measurement": "Plasma concentration Mean", "setting": "[1]", "value": "BQL"}, {"measurement": "concentration at 0.083 hr", "setting": "female, Balb/c, mouse, plasma, po, 30 mg/kg, 0.083 hr, read-out: Plasma concentration Mean", "value": 84.9, "unit": "ng/mL"}, {"measurement": "concentration at 0.25 hr", "setting": "female, Balb/c, mouse, plasma, po, 30 mg/kg, 0.25 hr, read-out: Plasma concentration Individual", "value": 383, "unit": "ng/mL"}, {"measurement": "concentration at 0.25 hr", "setting": "female, Balb/c, mouse, plasma, po, 30 mg/kg, 0.25 hr, read-out: Plasma concentration Mean", "value": 427, "unit": "ng/mL"}, {"measurement": "concentration at 0.5 h", "setting": "female, Balb/c, mouse, plasma, po, 30 mg/kg, 0.5 hr, read-out: Plasma concentration Individual", "value": 397, "unit": "ng/mL"}, {"measurement": "concentration at 0.5 h", "setting": "female, Balb/c, mouse, plasma, po, 30 mg/kg, 0.5 hr, read-out: Plasma concentration Mean", "value": 427, "unit": "ng/mL"}, {"measurement": "concentration at 1 h", "setting": "female, Balb/c, mouse, plasma, po, 30 mg/kg, 1 hr, read-out: Plasma concentration Individual", "value": 320, "unit": "ng/mL"}, {"measurement": "concentration at 1 hr", "setting": "female, Balb/c, mouse, plasma, po, 30 mg/kg, 1 hr, read-out: Plasma concentration Mean", "value": 470, "unit": "ng/mL"}, {"measurement": "concentration at 2 hr", "setting": "female, Balb/c, mouse, plasma, po, 30 mg/kg, 2 hr, read-out: Plasma concentration Individual", "value": 376, "unit": "ng/mL"}, {"measurement": "concentration at 2 hr", "setting": "female, Balb/c, mouse, plasma, po, 30 mg/kg, 2 hr, read-out: Plasma concentration Mean", "value": 322, "unit": "ng/mL"}, {"measurement": "concentration at 4 hr", "setting": "female, Balb/c, mouse, plasma, po, 30 mg/kg, 4 hr, read-out: Plasma concentration Individual", "value": 193, "unit": "ng/mL"}, {"measurement": "concentration at 4 hr", "setting": "female, Balb/c, mouse, plasma, po, 30 mg/kg, 4 hr, read-out: Plasma concentration Mean", "value": 159, "unit": "ng/mL"}, {"measurement": "concentration at 8 hr", "setting": "female, Balb/c, mouse, plasma, po, 30 mg/kg, 8 hr, read-out: Plasma concentration Mean", "value": 32.6, "unit": "ng/mL"}, {"measurement": "AUC(0-inf)", "setting": "mouse, plasma", "value": 1720, "unit": "ng·h/mL"}, {"measurement": "AUC(0-t)", "setting": "mouse, plasma", "value": 1640, "unit": "ng·h/mL"}, {"measurement": "Cmax", "setting": "mouse, plasma", "value": 470, "unit": "ng/mL"}, {"measurement": "MRT inf", "setting": "mouse, plasma", "value": 2.76, "unit": "h"}, {"measurement": "MRT last", "setting": "mouse, plasma", "value": 2.35, "unit": "h"}, {"measurement": "Tmax", "setting": "mouse, plasma", "value": 1, "unit": "h"}, {"measurement": "half-life", "setting": "mouse, plasma", "value": 1.81, "unit": "h"}]}
